# Laboratory results as given in US20150125406A1, “TOPICAL SKIN CARE COMPOSITION” (JAFER LIMITED, priority 2012, published 2015).
# Assays:
# Format in all cases: cell-based
# [1] = system: B16 melanocytes; experiment: Melanin production/secretion in melanocytes, Study I; details: 48 hours incubation; for effect on pigmentation / inhibition of melanin production/secretion: 20X dilution of stock solutions
# Procedure: This example illustrates the synergistic efficacy of the combination of the complexion modifying components (a) 4-hexylresorcinol, (b) niacinamide and (c) 1-amino-ethylphosphinic acid, compared to the effect of the individual components, based on an in vitro evaluation of melanin production/secretion in melanocytes. Components (a), (b) and (c) were evaluated individually and in combination with one another as described below in Studies I and II, and in Tables 9 and 10.
# (§1) One set of aqueous stock solutions was prepared containing each component individually (as supplied) in an amount representing the active concentration present in a composition of Example 1-B (Compositions 6A-C in Table 9). A corresponding second and third set of stock solutions was prepared, respectively containing two-times (Compositions 6E-G in Table 9) and four-times (Compositions I-K in Table 9) the amount of the foregoing concentrations. Combinations of each component were prepared from the stock solutions of each component (Compositions. 6D, 6H, and 6L in Table 9) to provide amounts representing the weight ratio of each component to one another present (active basis) in a composition of Example 1-B as shown below in Notes 1-3 of Table 9. A 20-fold (20×) dilution (distilled water) of each stock solution was selected for the in vitro test to minimize or avoid cytotoxicity of melanocytes in the cell growth medium.
# Component (c) as supplied is described in Note (a) to Table 2. As a positive control, stock solutions of kojic acid solutions were prepared at an active concentration of 2%, 0.5% and 0.1% to provide a concentration of 0.1%, 0.025% and 0.005%, respectively, at a 20× dilution. Distilled water was used as the negative control.
# (§2) Cells (B16 melanocytes) were plated in phenol-free Dulbecco's Modified Eagle's Medium (DMEM) supplemented with 5% fetal bovine serum (FBS) at 10,000 cells/well. After 24 hours, test material was added and the cells were incubated with the test material for 48 hours. The melanin was quantified by instrumentally measuring absorbance with a BIORAD microplate spectrophotometer 3550-UV at 490 nanometers. Cultures were also photographed (CANON REBEL digital camera). Statistical significance of the values was calculated using paired t-test and threshold statistical significance was fixed at p=0.05 and 15% difference as compare to the water control group. Cell numbers were measured using a sulforhodamine B method (described by Skehan et al, “New colorimetric cytotoxicity assay for anticancer-drug screening”, J. Natl Cancer Inst., 82:1107, 1990, the relevant disclosures of which are incorporated herein by reference). The colorimetric signal proportional to cell numbers was acquired with the microplate spectrophotometer 3550-UV at 550 nanometers.
# [2] = system: B16 melanocytes; experiment: Cell numbers by sulforhodamine B method, Study I; details: 20X dilution of stock solutions; 48 hours incubation
# Procedure: as §1, §2
# [3] = system: B16 melanocytes; experiment: Melanin production/secretion in melanocytes, Study II; details: 20X dilution of dilute stock solutions; 72 hours
# Procedure: as §2
# Following the general procedure of Study I, a further set of dilute aqueous stock solutions was prepared containing each component individually (Compositions 6M-O in Table 10). […] For comparison, a dilute stock solution of hydroquinone (Composition 6Q) was included. A 20-fold (20×) dilution (distilled water) of each stock solution was selected for the in vitro test to minimize or avoid cytotoxicity of melanocytes in the cell growth medium.
# Distilled water was used as the negative control. As a positive control for validating the test, a dilute stock solutions of kojic acid (0.2%, 0.04%) were prepared and a 20× dilution (0.01%, 0.002%) tested.
# (§3) The methodology of Study I was repeated, except that the test was terminated after 72 hours for quantifying melanin pigmentation.
# [4] = system: B16 melanocytes; experiment: Cell numbers by sulforhodamine B method, Study II; details: 20X dilution of dilute stock solutions; 72 hours
# Procedure: as §2
# Following the general procedure of Study I, a further set of dilute aqueous stock solutions was prepared containing each component individually (Compositions 6M-O in Table 10). A stock solution containing a combinations of each component was prepared from the stock solutions of each component (Composition 6P in Table 10) to provide amounts representing the weight ratio of each component to one another present in a composition of Example 1-B as shown below in Note 1 to Table 10. For comparison, a dilute stock solution of hydroquinone (Composition 6Q) was included. A 20-fold (20×) dilution (distilled water) of each stock solution was selected for the in vitro test to minimize or avoid cytotoxicity of melanocytes in the cell growth medium.
# as §3
SMILES,effect on pigmentation / inhibition of melanin production/secretion [1],effect on cell numbers / cytotoxicity [2],inhibitory effect on pigmentation [3],effect on cell numbers / cytotoxicity [4],inhibition of melanin production/secretion [3],pigmentation expressed as % (water control 100%) ([1]; 20X dilution)
CC(N)[PH](=O)O (stereo not shown) [1-amino-ethylphosphinic acid],no effect,no effect,no inhibitory effect,no inhibitory effect,,
CCCCCCc1ccc(O)cc1O [4-hexylresorcinol],,cytotoxic or cytostatic,,cytotoxic,,
Oc1ccc(O)cc1 [hydroquinone],,,,,≥ 50%,
O=c1cc(CO)occ1O [kojic acid],dose-dependent pigmentation-inhibitory effect,without significantly impacting cell proliferation,,without significantly impacting cell proliferation,about 73%,70-90%
NC(=O)c1cccnc1 [niacinamide],no effect,no effect,no inhibitory effect,no inhibitory effect,,
